Reference: patent US20130270195A1, “MULTIFUNCTIONAL COMPOSITION FOR THE DISINFECTION TREATMENT OF WATER, AND USE OF THIS COMPOSITION” (Compagnie Des Salins Du Midi Et Des Salines De L'Est, priority 2010, published 2013)

Legend:
[1] = Anti-limescale effect: calcium deposited as limescale on beaker walls; details: for anti-limescale activity: conclusion in words; for % non limescale calcium / Calcium (part of the calcium responsible for the production of limescale): sample 11 Aquacid 24.0 mg/L, sample 14 metasilicate 20.0 mg/L
Procedure: The aim of this test was to analyze the reaction of two additives (HEDP, metasilicate) in the presence of calcium.
The apparatus used was as follows: • new beakers with a volume of 400 milliliters (mL), a pH meter, an oven at 70° C., plastic film as well as normal laboratory apparatus (including class A glassware).
The operating protocol can be summarized as follows: • For each test formulation, 300 mL of equivalent swimming pool solution was prepared in the beakers provided. Each series of analyses was spread over two types of water: one with a HT=30° F. and one with a HT=15° F., in order to produce a spectrum of results covering a broad range of water types. The isocyanuric acid was added in the liquid form from a 1 grams per liter (g/L) solution. The additives (HEDP, metasilicate) for the formulations were added in the liquid form from 1 g/L solutions. The solutions were systematically buffered, either with sulfuric acid or with sodium hydroxide, in order to provide an initial pH in the range 6.8 to 7.4 (maximum efficiency range for chlorine). The solutions were left covered with film and were analyzed 3 days later so that the substances had reacted. At the time the analysis was carried out, the beakers were placed in an oven at 70° C. in order to evaporate the liquid phase. They were then rinsed with 100 ml of osmosis purified water in order to eliminate the soluble deposits and to leave only limescale deposits on their walls. The beakers were then refilled with osmosis purified water and 1 mL of 1N hydrochloric acid in order to dissolve the deposits: the measurements were carried out on these solutions.
The parameters below were monitored during the study: • The following were measured for the starting tap water: pH, HT (hydrptimetric titer), calcium, AT (alkalimetric titer), and CAT (complete alkalimetric titer).
The pH was monitored throughout the experiment. The calcium was measured at the end of the experiment.

[2] = Chlorine stabilizing effect under UV radiation (residual chlorine assay); assay type: physicochemical; details: for Residual chlorine: starting 3 mg/L Cl2, sample 11 Aquacid 24.0 mg/L, sample 14 metasilicate 20.0 mg/L
Procedure: In the presence of UV radiation, chlorine is destroyed photochemically. Isocyanuric acid can be used to reduce the destruction of chlorine under the effect of UV.
The following apparatus was used: 5 liter volume bucket, pH meter and normal laboratory apparatus (including class A glassware).
The operating procedure can be summarized as follows: • For each test formulation, two liters of solution was prepared in the buckets provided. The isocyanuric acid was added in the liquid form from a 1 g/L solution. The additives (metasilicates, HEDP) for the formulations were added in the liquid form from 1 g/L solutions. The dose of chlorine necessary for this study was provided by bleach in quantities that meant that solutions containing 3 mg/L of Cl2 were obtained. The solutions were systematically buffered, either with sulfuric acid or with sodium hydroxide, in order to provide a starting pH in the range 6.8 to 7.4 (zone of maximum efficiency for chlorine).
The following parameters were measured during the study: • for the starting water: pH, residual chlorine, HT, calcium, AT, CAT were measured; • throughout the experiment: pH, residual chlorine were monitored.
The chlorine measurements were carried out using quantitative chlorine assay. The measurements were carried out at times T+32 h10 and T+50 h10; the formulation of the compositions at time T are given in Table 4.

[3] = Evolution of turbidity of swimming pool water samples (HACH turbidity meter); assay type: physicochemical; details: for Turbidity: Aquacid or metasilicate 40.0 mg/L
From the text: The aim of this test was to compare the effect of two compositions comprising sodium chloride and isocyanuric acid in disinfecting swimming pool water, one further comprising HEDP, and the other metasilicate in order to obtain a composition according to the invention.
In all of the examples below, the substances used were as follows: • salt; • isocyanuric acid; • Aquacid© (powder with 72% HEDP); • disodium metasilicate pentahydrate; • tap water; • commercial bleach (concentration of bleach: 2.15% of active chlorine); • 1N hydrochloric acid; • 35% sulfuric acid; • sodium hydroxide; and • acetone.
The following proportions were prepared to prepare the samples:
The measurement of the turbidity, in NTU (Nephelometric Turbidity Unit), was carried out with the aid of a HACH turbidity meter at the time intervals indicated in Table 3. The reaction conditions were selected in order to accelerate the appearance of any cloudiness.

[4] = Anti-corrosion effect: steel plate immersed in 4 g/L saline solutions; details: for anti-corrosion activity: conclusion in words; for Fe loss/plate: results at 2 months, 4 g/L saline, sample 11 Aquacid 24.0 mg/L, sample 14 metasilicate 20.0 mg/L
Procedure: The principle of the method consists of completely immersing, in 4 g/L saline solutions with the compounds of the formulations, one steel plate per beaker, disposed vertically in order to have as little contact as possible with the glass. The formulations were those presented in section 4 in Example 3.
The efficacy of the formulations was evaluated as a function of the loss on ignition of the plate over a period of time, namely 2 months.
The following apparatus was used: • 400 mL beakers, pH-meter, steel plate with a surface area of 5.3 cm^2, plastic film as well as normal laboratory apparatus (including class A glassware). The operating protocol can be summarized as follows:
• stripping the plates with 1N hydrochloric acid using ultrasound in order to have plates of identical quality; • degreasing the plate with acetone in order to obtain identical active surfaces; • weighing the plates with milligram precision.
Swimming pool concentration solutions were prepared in advance in 2 liters (L) graduated flasks in order to provide mutually homogeneous media. The beakers were filled with 300 mL of the above-mentioned solutions. The beakers were covered with food quality film in order to prevent the medium from being polluted and in order to prevent too much evaporation.
The parameters measured were as follows: • on the tap water: pH, HT, AT, CAT, calcium.
In order to accelerate the phenomenon of corrosion, bubbling was carried out using an aquarium pump and outlet jets mounted on a rail. The bubbling time was 10 minutes. The solutions were aerated on odd days of the week. Since bubbling raises the pH, it was brought back to swimming pool in-service values, between 6.8 and 7.4. In order to maintain the salinity at 4 g/L and to overcome natural evaporation, tap water was added in order to keep the volume of water constant at 300 mL.
The following parameters were measured: • pH; • observations of the solutions and immersed plates once a day, taking photographs. These observations were made without handling either the beakers or the solutions.
The scraping spatula was treated with ultrasound then the plates were scraped using the spatula to recover the deposit. In order to terminate stripping of the plate and thus to collect all of the deposit, the plate and the spatula were treated with ultrasound in a water bath. The deposits were then filtered through 10 micrometer (pm) pores and 1.2 μm pores and then dried.
The following parameters were measured: • the plates were weighed to milligram precision; • an iron analysis was carried out on the plates; • a dissolved iron analysis was carried out on the solutions.
The analyses were carried out after 2 months.

[5] = first starting water, HT 27 °f, calcium 109 mg/L
[6] = second starting water, HT 14.6 °f
[7] = second starting water, HT 14.6 °f, calcium 44.3 mg/L
[8] = time T, salt 4.0 g/L, iso acid 28.0 mg/L, chlorine 3.0 mg/L

SMILES	anti-limescale activity [1]	calcium in the water before treatment transformed into limescale ([1]; first starting water, HT 27 °f) [%]	% non limescale calcium [1, 5] [%]	Calcium (part of the calcium responsible for the production of limescale) [1, 5] [mg/L]	calcium of the water before treatment transformed into limescale [1, 6] [%]	% non limescale calcium [1, 7] [%]	Calcium (part of the calcium responsible for the production of limescale) [1, 7] [mg/L]	Loss of chlorine ([2]; T + 32 h 10) [%]	Residual chlorine ([2]; T + 32 h 10) [mg/L]	Loss of chlorine ([2]; T + 50 h 10) [%]	Residual chlorine ([2]; T + 50 h 10) [mg/L]	Turbidity ([3]; T + 94 h) [NTU]	Turbidity ([3]; T + 118 h) [NTU]	Turbidity ([3]; T + 142 h) [NTU]	Turbidity ([3]; T + 168 h) [NTU]	Turbidity ([3]; T + 192 h) [NTU]	Turbidity ([3]; T + 216 h) [NTU]	Turbidity [3, 8] [NTU]	anti-corrosion activity [4]	Fe loss/plate [4] [%]	further results
CC(O)(P(=O)(O)O)P(=O)(O)O [HEDP, 1-hydroxyethane-1,1-diphosphonic acid, reference compound]	have an anti-limescale activity	7.9	92.1	8.6	8.6	91.4	3.8	100.00	0	100.00	0	20.5	22.5	30.1	34.2	44.4	56.8	0.243	have an anti-corrosion activity	2.80	
O.O.O.O.O.O=[Si]([O-])[O-].[Na+].[Na+] [Metasilicate, disodium metasilicate pentahydrate]	better anti-limescale activity than that of the HEDP	3.5	96.5	3.8	5.9	94.1	2.6	36.36	1.89	62.96	1.1	0.538	0.547	0.526	0.579	1.4	1.45	0.274	anti-corrosion activity that is even better than that of HEDP	1.63	preservation of the residual chlorine concentration ([2]; conclusion in words): preserves the residual chlorine concentration better than HEDP; cloudiness of the water detectable to the naked eye ([3]; same conditions as Table 3): does not induce any cloudiness
